A melting point compilation (Tetko et al.; mined from patent text by program, amines drawn as free bases though some values may be those of a salt)
Residues, ends and D or L forms follow the SMILES beside them. *: point of attachment. Boc = CC(C)(C)OC(=O)*; NHNH2 = NN*

SMILES | melting point [°C]
O=C(O)Cn1c(=O)c2cc(Cl)ccc2n(Cc2ccc(F)cc2)c1=O | 211 to 212
CC(C)NC=C1C(=O)COc2ccccc2C1=O | 89 to 91
CN(C)CCCNC(=O)c1ccc(-c2ccc3nnn(Cc4ccc5ncccc5c4)c3n2)cc1 | 132 to 135
FC(F)(F)c1cccc2c1c(N1CCOCC1)nc1c(-c3nc(C4CC4)no3)ncn12 | 197 to 199
O=Cc1ccc2ccccc2c1OCc1ccccc1 | 62 to 63
COC(=O)Nc1cn2ccc(Sc3ccccc3)cc2n1 | 221 to 223
O=C1NC(=O)C2(N1)c1ccccc1-c1ncccc12 (stereo not given) | 311 to 312
CCCCCCCCCCCCC1(Cn2ccnc2)SCC(CCCC)S1 (stereo not given) | 156 to 161
COC(=O)CCc1cnoc1-c1ccc(Cl)c(Cl)c1 | 74 to 75
CC1(C)COC(c2cc3c(O)cccc3o2)=N1 | 187 to 188
C#Cc1ccc2c(c1)Cc1cc(C#C)ccc1-2 | 125
CCc1[nH]n(-c2c(Cl)cc(Cl)cc2Cl)c2nc(Cc3ccc(-c4ccc(OC)cc4)cc3)nc(=O)c1-2 | 275 to 277
CC(C)Cn1c(CN2C(=O)c3ccccc3C2=O)c(OCCCC(F)(F)F)c2cc(OCc3ccccc3)ccc2c1=O | 131 to 132
Nc1ccc(S(=O)(=O)Nc2cccc3c(Cl)c[nH]c23)cn1 | 206 to 207
O=C(c1ccc(-c2ccccc2)cc1)c1cccc(C(=O)c2ccc(-c3ccccc3)cc2)c1 | 182 to 186
O=C1CCC(c2ccccc2)(c2ccccc2)C2CN(C(Cc3ccccc3)=NCc3cccnc3)CC12 (stereo not given) | 102
Nc1ccc(Sc2cccc3cnccc23)c([N+](=O)[O-])c1 | 222 to 227
Cc1cccc2c1nc1n2CC(C(C)(C)C)Oc2c(Cl)cccc2-1 (stereo not given) | 191 to 192
COC(=O)c1ccccc1C1=NC(C)(C(C)C)C(=S)N1 (stereo not given) | 134 to 138
COC(=O)C1Oc2cc(Cl)ccc2C(C)(c2ccccc2)O1 (stereo not given) | 144
O=C(Nc1ccc2ccc(Cl)nc2n1)C1CC1 | 250
CCOP(=O)(OCC)C(CCc1cc(C)nc2c(Br)c(-c3ccccc3)nn12)P(=O)(OCC)OCC | 46 to 48
O=C(NCC(O)CO)c1cc2c(Oc3ccc(Cl)cc3)cncc2s1 (stereo not given) | 106 to 115
CSCCC(NC(=O)C(CCCCNC(=O)OC(C)(C)C)NC(=O)C(Cc1ccc(O)cc1)NC(=O)C1CCCN1)C(=O)NN (stereo not given) (H-PYK(Boc)M-NHNH2; configuration not given here) | 206 to 207

SMILES | melting point [°C]
CCN(CC)c1ccc(C2(c3ccc(N(C)C)cc3N(C)C)OC(=O)c3cc(N(C)C)ccc32)cc1 (stereo not given) | 123 to 125
CCN(CC)CCOc1ccc(Nc2ncc3c(n2)N(c2ccccc2)C(=O)N(c2c(Cl)cccc2Cl)C3)cc1 | 162 to 163
CCOC(=O)C(C)Oc1ncn(-c2cccc(Br)c2)n1 (stereo not given) | 83 to 85
CCN1CCC(C(c2ccccc2)c2ccccc2)C(=O)C1 (stereo not given) | 73 to 74
O=C(O)c1ccc(CN([C@@H](CO)c2ccccc2)S(=O)(=O)c2ccc(Cl)cc2)cc1 | 85 to 87
Cn1cc2c(nc(NC(=O)Nc3ccc(CC(=O)NCCOCCOCCNC(=O)OC(C)(C)C)cc3)n3nc(-c4ccco4)nc23)n1 | 157 to 165
COC(=O)CCc1cnoc1-c1ccc(Br)cc1 | 58 to 59
CC(=O)c1cn(Cc2ccccc2)c(=O)[nH]c1=O | 196 to 197
CCOc1ccc(-c2ccc3c(c2)C=C(C(=O)Nc2ccc(CN(C)C4CCOCC4)cc2)CCS3=O)cc1 (stereo not given) | 192 to 195
C=C(Cn1cc[nH]c1=O)c1ccc(OC)c(OC2CCCC2)c1 | 110
Nc1nc(NCC(O)(c2ccccc2)c2ccccc2)c2ncn(C3OC(CO)C(O)C3O)c2n1 (stereo not given) | 138 to 140
C(#Cc1ccc2[nH]ccc2c1)CCN1CCC(Cc2ccccc2)CC1 | 165 to 166
CCC(O)(CC)c1csc(-c2cccc(OCc3ccc(CO)c(CO)c3)c2)c1 | 47
CCCCCCC(CO)n1cnc(C(N)=O)c1 (stereo not given) | 97.5 to 100
COc1cc(-c2cn(-c3cccc(OCCn4ccnc4)c3)c3ncnc(N)c23)ccc1OCc1ccccc1 | 122 to 124
Cc1ccc(N)c(C)c1C1OCCO1 | 100 to 103
CCCCC(CC)COc1ccc2c(-c3ccc(C=O)cc3)c3cc(OCC(CC)CCCC)ccc3c(-c3ccc(C=O)cc3)c2c1 (stereo not given) | 125 to 127
Cc1c(NC(=O)c2ccc(-c3ccc(F)cc3)cc2)ccc2cc(CN3CCC(CCCC(=O)N(C)C)CC3)cnc12 | 202 to 204
CC(C(=O)O)c1ccc(Oc2ccc(F)cc2)c(Cl)c1 (stereo not given) | 68 to 70
O=c1ccc(C(F)(F)F)cn1Cc1ccc([N+](=O)[O-])cc1 | 121 to 123
CSc1ccc(C(=O)Cc2ccccc2)cc1F | 71 to 72
CN(C(=O)C(F)(F)F)C1(C)CN(c2nc3c(cc2F)c(=O)c(C(=O)O)cn3C(C)(C)C)C1 | 263 to 265
Cn1c(=O)nc(-c2ccccc2)c2cc3c(cc21)OCO3 | 253 to 255
CONC(=N)c1nc(C)c(I)c(NCC(F)(F)F)n1 | 150 to 152

SMILES | melting point [°C]
CC(=O)OCC(=O)C1(OC(C)=O)CCC2C3CCC4=CC(=O)C=CC4(C)C3C(O)CC21C (stereo not given) | 99.5
CC(=O)N1CCC(=O)NCc2ccccc21 | 236 to 239
CCn1cc(-c2ccccc2)c(=O)c(-c2cccc(C)c2)c1 | 87 to 89
O=c1[nH]c2ccc(S(=O)(=O)N(CCO)CCO)cc2[nH]c1=O | 272 to 276
COC(=O)[C@@H]1C[C@H](C(=O)OC(C)(C)C)N(C(=O)CNC(=O)Nc2cccc(C(=O)O)c2)[C@@H]1c1ccccc1 (racemic) | 243
COC(=O)c1ccc2c(c1)c(=O)[nH]c(=O)n2CCCCN1CCC(OC(c2ccccc2)c2ccccc2)CC1 | 151 to 153
Cn1c(=O)c(-c2nnn(Cc3cccc(OCc4ccc5ccccc5n4)c3)n2)cc2cc(OCCCN3CCN(Cc4ccc5ccccc5n4)CC3)ccc21 | 174 to 178
O=C(O)c1ccc2c(c1)C(C(Cl)Cl)OC(C(Cl)(Cl)Cl)O2 (stereo not given) | 209
Nc1ccc2c(ccn2Cc2ccccc2)c1 | 66 to 68
C=CCn1c(C)nc2c3c(c(C(=O)OCC)cc21)C(=O)CC1(Cc2ccccc2C1)N3 | 183 to 184
COCCNC(=S)n1nc(Oc2ncc(C(F)(F)F)cc2Cl)cc1C | 108 to 109
CCCCN=C(N)Nc1nc(C)cc(C)n1 | 185
O=C(Nc1ccccc1S(=O)(=O)c1ccccc1)N[C@@H](Cc1ccc(NCc2c(Cl)cccc2Cl)cc1)C(=O)O | 116
Cc1cc(Cl)c(-n2nc(C)n(C(F)F)c2=O)cc1OC(C)C(=O)O (stereo not given) | 56 to 60
CC1=C(S(C)(=O)=O)C(c2ccc(Cl)c([N+](=O)[O-])c2)C2=C(CCC2=O)N1 (stereo not given) | 232
Cc1sc(-c2ccccc2)nc1COc1ccc(CON=C(CCC(=O)O)c2ccccc2)cc1 | 99 to 100
Cc1c(N2CCNCC2)nn2c(-c3ccncc3)c(-c3ccc(F)cc3)nc2c1C | 233 to 235
C=CCOc1ncc(F)c(N(N)C(=O)c2cccc(C)c2)n1 | 181 to 185
CN1CCCC(C2=C(C#N)C(c3cccc4nonc34)c3c[nH]nc3N2)C1 (stereo not given) | 228
c1ccc(CN2CCC(c3cc(-c4ccccc4)[nH]n3)CC2)cc1 | 130 to 131
CCOC(=O)C(=O)Nc1cc2c3c(cccc3c1)C(=O)OC2=O | 275 to 276
O=C(OCCO)c1ccc([N+](=O)[O-])cc1 | 77 to 78
OCc1cn(-c2ccc(F)c(Cl)c2)cn1 | 130 to 135
CCC(=O)NC[C@@H]1C[C@H]1c1c(I)ccc2c1CCO2 (relative stereo) | 148 to 149

SMILES | melting point [°C]
Clc1ccc2c(c1)N=C(NCCn1ccnc1)c1ccccc1N2 | 168 to 170
O=C(NCCCl)Oc1ccc(Cl)c2cccnc12 | 146
Cc1[nH]c2ccc(OCCN3CCCC3c3cccnc3)cc2c1C(=O)OCc1ccccc1 (stereo not given) | 126 to 127
Nc1ncnc2c1c(-c1ccc(Oc3ccccc3)cc1)c(Br)n2C1CCCC1 | 162
COc1ccnc(-n2cnc3ccccc32)n1 | 114 to 116
CCC1(CC)OC(c2ccc(S(C)(=O)=O)cc2)=CC1=O | 109 to 110
Cc1oc(-c2ccccc2)nc1CCOc1ccc(CC(Nc2ccccc2C(=O)c2cccc(CO)c2)C(=O)O)cc1 (stereo not given) | 87 to 90
Nc1c(OCCNCc2ccccc2)cccc1[N+](=O)[O-] | 33 to 60
CCOC(=O)CCCCC(=O)c1c(C)cc(C)c(C)c1O | 72 to 73
CS(=O)(=O)c1ccc(-n2nc(C(F)(F)F)cc2-c2ccc(C#CCCCO)cc2)cc1 | 87 to 90
CCCCn1c(=O)n(CCCCC(C)=O)c(=O)c2c1ncn2CC(C)=O | 87
O=C(NC1(C(=O)O)CCCCC1)C(CS)Cc1ccccc1 (stereo not given) | 193 to 195
Cc1ccc(Sc2cncc3sc(C(=O)NCC(O)CO)cc23)cc1 (stereo not given) | 120 to 122
O=C(c1ccc2nonc2c1)N1CC2CCC1C2 (stereo not given) | 92 to 93
COC(=O)c1ccc2cc(OC)c(OC)cc2c1-c1ccnc(Cl)c1 | 142 to 145
O=C1N[C@H](Cc2ccccc2C(F)(F)F)[C@H](c2ccc(F)cc2)O1 (racemic) | 138 to 140
CCCCCOc1ccc(-c2ncc(C#N)c(Cl)n2)cc1 | 140 to 142
CCC1C(C)=NN=C(c2ccc(OC)c(OC)c2)c2cc(Cl)ccc21 (stereo not given) | 185 to 187
O=C(Nc1cc2ncc(CN3CCCC3)cc2cc1F)c1ccc(-c2ccc(OC(F)(F)F)cc2)cc1 | 184 to 187
COc1ccc([N+](=O)[O-])cc1OCCCCl | 85 to 87
C=CCN(CC=C)Cc1nc(-c2ncn3c2CN(C)C(=O)c2c(Cl)cccc2-3)no1 | 126 to 130
NC(=O)c1ccc(C(N)=O)c(CC(O)CO)c1 (stereo not given) | 194
CC(Cl)(Cl)C(NC(=O)c1ccc(Cl)cc1)NC(=NC#N)Nc1ccc(Cl)nc1 (stereo not given) | 199 to 200
